Laboratory results: patent publication US20160310454A1, “LIVER X RECEPTOR AGONISTS IN THE TREATMENT OF EMPHYSEMA” (priority 2013, published 2016)

Columns and labels:
[1] = test system: macrophage ABCA1-deficient mice exposed to cigarette smoke for 10 days; assay: Acute 10 day cigarette smoke exposure of macrophage ABCA1-deficient mice with treatment; assay type: in vivo, mouse; conditions: 25 mg/kg IP, 10 days smoke exposure
Description: In order to determine if the mechanism identified in vitro contributed to changes in smoke induced lung inflammation in vivo, smoke studies were performed in vivo. […] Through investigation of the smoke-induced regulation of ABCA1, the present disclosure identifies unique pathways that can be targeted to prevent smoking-related emphysema and the progression of lung destruction.

[2] = test system: human peripheral blood monocytes differentiated to macrophages, 5% CSE; assay: Human monocyte-derived macrophages treated with 5% CSE with or without LXR agonist; assay type: cell-based; conditions: LXR agonist 3 μM
Source text: FIG. 21. Downregulation of ABC transporters in Chronic Obstructive Pulmonary Disease (COPD) as potential therapeutic target with LXR agonist. (A.) (Left) mRNA expression analysis of ABCA1 G1 in lungs of patients with moderate (after lung volume reduction) and severe COPD (after lung transplantation) and (Right) mRNA expression analysis of ABCA1/G1 in lungs of patients with moderate and severe COPD (n=7). (B.) mRNA analysis of ABCA1, ABCG1, MMP9, (C.) MMP-2 and 9 activity assayed by gelatin zymography in human peripheral blood monocytes differentiated to macrophages in vitro by 3 days treatment with M-CSF (10Ong/m1). After differentiation process human macrophages were treated with 5% CSE with or without LXR agonist (T0901317-Cayman) treatment in 3 μM concentration. β-Actin was used as a housekeeping gene control for RT-PCR. Values are presented as statistically significant when *p<0.05, **p<0.01, ***p<0.001 when compared to controls and #p<0.05 compared Co LXR treated human macrophages.
To prepare cigarette (CSE), the smoke from one cigarette (1.1 mg of nicotine, 15 mg of tar) was passed through 25 mls of phosphate buffered saline (PBS) (Mercer et al., 2004). The pH of the extracted solution was adjusted to 7.4 and then filtered (Mercer et al., 2004). CSE was added to the media at concentrations up to 5% (vol/vol) (Mercer et al., 2004).

Q: With O=S(=O)(c1ccccc1)N(CC(F)(F)F)c1ccc(C(O)(C(F)(F)F)C(F)(F)F)cc1 [T0901317, N-(2,2,2-trifluoroethyl)-N-[4-[2,2,2-trifluoro-1-hydroxy-1-(trifluoromethyl)ethyl]phenyl]-benzenesulfonamide] as the compound, how does the “pulmonary inflammation (total cell counts in BAL)” value [1] read?
A: did not resolve

Q: And the “ABC transporter levels (ABCA1, ABCG1 mRNA)” value [2]?
A: restored

Q: And the “CSE increased MMP-9 expression and activity” value [2]?
A: inhibited
